Assay results: patent US20220281848A1, “PYRAZOLE-SUBSTITUTED PYRROLIDINONES AS HERBICIDES” (FMC Corporation, priority 2019, published 2022)

Test system: plants
Assay: Test D pre-emergence, other plants of Tables D1 and D3
Format: in vivo
Conditions: pre-emergence, 100=total damage, 0=no damage
Procedure: A formulation containing 50 g/L of the test chemical was prepared by dissolving the active ingredient in a mixture of organic solvents and emulsifier, details of which are provided in the table. This formulation was then mixed with a small, variable amount of acetone to aid dissolution, before addition of a 0.2% v/v aqueous solution of an adjuvant, as the aqueous diluent, to form an aqueous spray solution which contains a predetermined concentration of the active ingredient.
This aqueous spray solution was then sprayed onto plants including maize and wheat that had been seed treated with a herbicide safener, after one day's cultivation (for pre-emergence) or after about 12 days' cultivation (for post-emergence). The plants were grown from seeds sown in standard soil, placed in a glasshouse under controlled conditions (at 24/18° C. or 20/16° C., day/night; 16 h light; 65% humidity). After spray application the plants were then grown in a glasshouse under the same conditions and watered twice daily. After 15 d for post-emergence and 20 DAA for pre-emergence the test was evaluated (100=total damage to plant; 0=no damage to plant).

CN1CC(c2cc(C(F)(F)F)n(C)n2)C(C(=O)Nc2ccc(F)cc2F)C1=O (racemic) [Compound 6]
30: damage to plant, LOLPE (rate 500, 20 DAA)
40: damage to plant, ALOMY (rate 500, 20 DAA)
70: damage to plant, POAAN (rate 500, 20 DAA)
10: damage to plant, POAAN (rate 130, 20 DAA) | damage to plant, CHEAL (rate 250, 20 DAA) | damage to plant, GALAP (rate 250, 20 DAA) | damage to plant, HORVW (rate 250, 20 DAA) | damage to plant, STEME (rate 250, 20 DAA) | damage to plant, VERPE (rate 250, 20 DAA) | damage to plant, KCHSC (rate 500, 20 DAA) | damage to plant, SINAR (rate 500, 20 DAA) | damage to plant, STEME (rate 500, 20 DAA)
0: damage to plant, ALOMY (rate 15, 20 DAA) | damage to plant, AVEFA (rate 15, 20 DAA) | damage to plant, BEAVA (rate 15, 20 DAA) | damage to plant, BROTE (rate 15, 20 DAA) | damage to plant, BRSNN (rate 15, 20 DAA) | damage to plant, CHEAL (rate 15, 20 DAA) | damage to plant, GALAP (rate 15, 20 DAA) | damage to plant, HORVW (rate 15, 20 DAA) | damage to plant, KCHSC (rate 15, 20 DAA) | damage to plant, LOLPE (rate 15, 20 DAA) | damage to plant, POAAN (rate 15, 20 DAA) | damage to plant, POLCO (rate 15, 20 DAA) | damage to plant, SINAR (rate 15, 20 DAA) | damage to plant, STEME (rate 15, 20 DAA) | damage to plant, VERPE (rate 15, 20 DAA) | damage to plant, ALOMY (rate 30, 20 DAA) | damage to plant, AVEFA (rate 30, 20 DAA) | damage to plant, BEAVA (rate 30, 20 DAA) | damage to plant, BROTE (rate 30, 20 DAA) | damage to plant, BRSNN (rate 30, 20 DAA) | damage to plant, CHEAL (rate 30, 20 DAA) | damage to plant, GALAP (rate 30, 20 DAA) | damage to plant, HORVW (rate 30, 20 DAA) | damage to plant, KCHSC (rate 30, 20 DAA) | damage to plant, LOLPE (rate 30, 20 DAA) | damage to plant, POAAN (rate 30, 20 DAA) | damage to plant, POLCO (rate 30, 20 DAA) | damage to plant, SINAR (rate 30, 20 DAA) | damage to plant, STEME (rate 30, 20 DAA) | damage to plant, VERPE (rate 30, 20 DAA) | damage to plant, ALOMY (rate 60, 20 DAA) | damage to plant, AVEFA (rate 60, 20 DAA) | damage to plant, BEAVA (rate 60, 20 DAA) | damage to plant, BROTE (rate 60, 20 DAA) | damage to plant, BRSNN (rate 60, 20 DAA) | damage to plant, CHEAL (rate 60, 20 DAA) | damage to plant, GALAP (rate 60, 20 DAA) | damage to plant, HORVW (rate 60, 20 DAA) | damage to plant, KCHSC (rate 60, 20 DAA) | damage to plant, LOLPE (rate 60, 20 DAA) | damage to plant, POAAN (rate 60, 20 DAA) | damage to plant, POLCO (rate 60, 20 DAA) | damage to plant, SINAR (rate 60, 20 DAA) | damage to plant, STEME (rate 60, 20 DAA) | damage to plant, VERPE (rate 60, 20 DAA) | damage to plant, ALOMY (rate 130, 20 DAA) | damage to plant, AVEFA (rate 130, 20 DAA) | damage to plant, BEAVA (rate 130, 20 DAA) | damage to plant, BROTE (rate 130, 20 DAA) | damage to plant, BRSNN (rate 130, 20 DAA) | damage to plant, CHEAL (rate 130, 20 DAA) | damage to plant, GALAP (rate 130, 20 DAA) | damage to plant, HORVW (rate 130, 20 DAA) | damage to plant, KCHSC (rate 130, 20 DAA) | damage to plant, LOLPE (rate 130, 20 DAA) | damage to plant, POLCO (rate 130, 20 DAA) | damage to plant, SINAR (rate 130, 20 DAA) | damage to plant, STEME (rate 130, 20 DAA) | damage to plant, VERPE (rate 130, 20 DAA) | damage to plant, ALOMY (rate 250, 20 DAA) | damage to plant, AVEFA (rate 250, 20 DAA) | damage to plant, BEAVA (rate 250, 20 DAA) | damage to plant, BROTE (rate 250, 20 DAA) | damage to plant, BRSNN (rate 250, 20 DAA) | damage to plant, KCHSC (rate 250, 20 DAA) | damage to plant, POLCO (rate 250, 20 DAA) | damage to plant, SINAR (rate 250, 20 DAA) | damage to plant, BEAVA (rate 500, 20 DAA) | damage to plant, BROTE (rate 500, 20 DAA) | damage to plant, BRSNN (rate 500, 20 DAA) | damage to plant, POLCO (rate 500, 20 DAA)
20: damage to plant, LOLPE (rate 250, 20 DAA) | damage to plant, POAAN (rate 250, 20 DAA) | damage to plant, AVEFA (rate 500, 20 DAA) | damage to plant, CHEAL (rate 500, 20 DAA) | damage to plant, GALAP (rate 500, 20 DAA) | damage to plant, HORVW (rate 500, 20 DAA) | damage to plant, VERPE (rate 500, 20 DAA)
